Assay results from ChEMBL document CHEMBL4732245, “Synthesis and biological evaluation of novel 4,7-disubstituted coumarins as selective tumor-associated carbonic anhydrase IX and XII inhibitors” (Bioorg Med Chem Lett, 2021).

How the values were obtained:
[1] = biological target: Carbonic anhydrase 1 (Homo sapiens, UniProt P00915); assay: Inhibition of recombinant human carbonic anhydrase 1 pre-incubated for 10 mins by stopped flow CO2 hydrase assay
[2] = biological target: Carbonic anhydrase 2 (Homo sapiens, UniProt P00918); assay: Inhibition of recombinant human carbonic anhydrase 2 pre-incubated for 10 mins by stopped flow CO2 hydrase assay
[3] = biological target: T1, Carbonic anhydrase 9 (Homo sapiens, UniProt Q16790); assay: Inhibition of recombinant human carbonic anhydrase 9 preincubated for 10 mins by stopped flow CO2 hydrase assay
[4] = biological target: T1, Carbonic anhydrase 9; assay: Inhibition of recombinant human carbonic anhydrase 9 preincubated for 6 hrs at 24 degC by stopped flow CO2 hydrase assay
[5] = biological target: Carbonic anhydrase 12 (Homo sapiens, UniProt O43570); assay: Inhibition of recombinant human carbonic anhydrase 12 preincubated for 6 hrs at 24 degC by stopped flow CO2 hydrase assay
Chain of Carbonic anhydrase 12 (O43570 whole entry): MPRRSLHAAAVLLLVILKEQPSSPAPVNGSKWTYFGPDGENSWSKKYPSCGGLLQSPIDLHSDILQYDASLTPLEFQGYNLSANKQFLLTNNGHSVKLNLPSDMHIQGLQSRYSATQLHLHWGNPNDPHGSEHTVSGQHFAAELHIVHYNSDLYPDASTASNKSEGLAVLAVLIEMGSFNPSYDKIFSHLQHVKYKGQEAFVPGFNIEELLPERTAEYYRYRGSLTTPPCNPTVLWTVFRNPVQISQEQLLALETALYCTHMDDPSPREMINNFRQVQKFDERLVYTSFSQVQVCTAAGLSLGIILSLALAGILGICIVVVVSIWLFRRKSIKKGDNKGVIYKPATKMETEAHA

Chain of Carbonic anhydrase 1 (P00915 whole entry): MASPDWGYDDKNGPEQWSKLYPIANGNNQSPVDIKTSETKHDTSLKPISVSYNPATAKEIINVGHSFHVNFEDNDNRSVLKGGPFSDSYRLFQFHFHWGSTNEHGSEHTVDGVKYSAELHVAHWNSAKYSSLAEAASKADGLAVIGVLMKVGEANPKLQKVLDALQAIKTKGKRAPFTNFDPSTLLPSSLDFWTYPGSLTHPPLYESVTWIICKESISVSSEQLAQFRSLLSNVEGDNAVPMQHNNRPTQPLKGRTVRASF

Row | Ki [1] [µM] | Ki [2] [µM] | Ki [3] [µM] | Ki [4] [µM] | Ki [5] [µM] | SMILES
1 | > 100 | > 100 | 0.89 | – | – | COc1ccc(N2CCN(Cc3cc(=O)oc4cc(OCc5ccc(Br)cc5)ccc34)CC2)cc1
2 | > 100 | > 100 | 2.55 | – | – | COc1ccc(N2CCN(Cc3cc(=O)oc4cc(OCc5cccc(OC)c5)ccc34)CC2)cc1
3 | > 100 | > 100 | 3.47 | – | – | COc1ccc(N2CCN(Cc3cc(=O)oc4cc(OCc5cccc(Br)c5)ccc34)CC2)cc1
4 | > 100 | > 100 | 2.66 | – | – | COc1ccc(N2CCN(Cc3cc(=O)oc4cc(OCc5ccc([N+](=O)[O-])cc5)ccc34)CC2)cc1
5 | > 100 | > 100 | 7.29 | – | – | COc1ccc(N2CCN(Cc3cc(=O)oc4cc(OCc5cccc(Cl)c5)ccc34)CC2)cc1
6 | > 100 | > 100 | 5.52 | – | – | COc1ccc(N2CCN(Cc3cc(=O)oc4cc(OCc5ccccc5)ccc34)CC2)cc1
7 | – | – | – | 0.0327 | 0.624 | N#Cc1ccc(Cn2cc(COc3ccc4c(CCl)cc(=O)oc4c3)nn2)cc1
8 | > 100 | > 100 | 3.85 | – | – | COc1ccc(N2CCN(Cc3cc(=O)oc4cc(OCc5ccccc5F)ccc34)CC2)cc1
9 | – | – | 2.34 | – | – | COc1ccc(CSc2nnc(COc3ccc4c(C)cc(=O)oc4c3)o2)cc1
10 | > 100 | > 100 | 4.55 | – | – | COc1ccc(N2CCN(Cc3cc(=O)oc4cc(OCc5cc(C)cc(C)c5)ccc34)CC2)cc1

The remaining lines, values behind:

Row | SMILES | Ki [1] [µM] | Ki [2] [µM] | Ki [3] [µM] | Ki [4] [µM] | Ki [5] [µM]
11 | COc1ccc(N2CCN(Cc3cc(=O)oc4cc(OCc5ccccc5[N+](=O)[O-])ccc34)CC2)cc1 | > 100 | > 100 | 5.39 | – | –
12 | COc1cccc(COc2ccc3c(CN4CCN(Cc5ccccc5)CC4)cc(=O)oc3c2)c1 | > 100 | > 100 | 4.9 | – | –
13 | O=c1cc(CN2CCN(Cc3ccccc3)CC2)c2ccc(OCc3cccc(Cl)c3)cc2o1 | > 100 | > 100 | 4.6 | – | –
14 | Cc1cc(C)cc(COc2ccc3c(CN4CCN(Cc5ccccc5)CC4)cc(=O)oc3c2)c1 | > 100 | > 100 | 0.78 | – | –
15 | O=c1cc(CN2CCN(Cc3ccccc3)CC2)c2ccc(OCc3cccc(Br)c3)cc2o1 | > 100 | > 100 | 0.85 | – | –
16 | O=c1cc(CN2CCN(Cc3ccccc3)CC2)c2ccc(OCc3cc(F)ccc3F)cc2o1 | > 100 | > 100 | 4.43 | – | –
17 | O=c1cc(CN2CCN(Cc3ccccc3)CC2)c2ccc(OCc3ccccc3[N+](=O)[O-])cc2o1 | > 100 | > 100 | 0.93 | – | –
18 | O=c1cc(CN2CCN(Cc3ccccc3)CC2)c2ccc(OCc3ccccc3)cc2o1 | > 100 | > 100 | 4.9 | – | –
19 | O=c1cc(CN2CCN(Cc3ccccc3)CC2)c2ccc(OCc3ccc(Br)cc3)cc2o1 | > 100 | > 100 | – | – | –
20 | O=c1cc(CN2CCN(Cc3ccccc3)CC2)c2ccc(OCc3ccc([N+](=O)[O-])cc3)cc2o1 | > 100 | > 100 | 3.16 | – | –
21 | O=c1cc(CN2CCN(Cc3ccccc3)CC2)c2ccc(OCc3ccccc3F)cc2o1 | > 100 | > 100 | 0.91 | – | –
